Assay results: US20130131161A1, “METHODS AND COMPOSITIONS FOR CARDIOVASCULAR DISEASES AND CONDITIONS” (priority 2009, published 2013)

Tested on: Human umbilical vein endothelial cells (HUVECs)
Assay: eNOS activity analysis: NO, ONOO− and NO/ONOO− release from HUVECs of 50 genotyped donors in response to LA-419 (Example 2)
Format: cell-based
Details: for % Change ONOO− (mean ± sd) / % Change NO (mean ± sd) / % Change NO/ONOO− (mean ± sd): LA-419 5 μM vs control; for Fold difference NO production / Fold difference NO/ONOO− ratio: LA-419 5 μM/control; for % Change Ratio, % Change NO/% Change ONOO− (mean ± sd) / Net increase over control NO (mean ± sd) / Net increase over control NO/ONOO− (mean ± sd) / Net increase over control ONOO− (mean ± sd) / Peak release NO (mean ± sd) / Peak release NO/ONOO− (mean ± sd) / Peak release ONOO− (mean ± sd): LA-419 5 μM
Protocol: Concurrent measurements of NO and ONOO^− were carried out with tandem electrochemical nanosensors combined into one working unit with a total diameter of 200-500 nm (FIG. 1). Their design was based on previously developed and well-characterized chemically modified carbon-fiber technology (Malinski and Taha, 1992; Lvovich and Scheeline, 1997). Each of the nanosensors was made by depositing a sensing material on the tip of a carbon fiber (length 4-5 μm, diameter 0.2-0.5 μm). The fibers were sealed with nonconductive epoxy and electrically connected to copper wires with conductive silver epoxy. A conductive film of polymeric nickel (II) tetrakis(3-methoxy-4-hydroxyphenyl)porphyrin for the NO-sensor and polymeric film of Mn (III) [2.2]paracyclophanylporphyrin was used for the ONOO^−-sensor.
A module of NO/ONOO^− nanosensors (diameter 1-2 μm) with a platinum wire (0.1 mm) counter electrode and saturated calomel reference electrode (SCE) were applied. Differential pulse voltammetry (DPV) and amperometry were performed with a computer-based Gamry VFP600 multichannel potentiostat. DPV was used to measure the basal NO and ONOO^− concentrations, and amperometry was used to measure changes in NO and ONOO^− concentrations from its basal level with time. The DPV current at the peak potential characteristic for NO oxidation (0.65 V) and ONOO^− reduction (−0.45 V) was directly proportional to the local concentrations of these compounds in the immediate vicinity of the sensor. Linear calibration curves (current vs. concentration) were constructed for each sensor from 10 nM to 3 μM before and after measurements with aliquots of NO and ONOO^− standard solutions, respectively. The detection limit of the sensors was 1.0 nM.
The quantification of each analyte (concentration in nM) was performed using a maximum current from amperograms and standard calibration curves. A reproducibility of measurements with nanosensors is relatively high (between 5-12%). […] The sensors were slowly raised 5±2 μm from the surface of a single endothelial cell. The eNOS agonist, calcium ionophore A23187 (CaI) as well as the different drugs were then added to the surrounding media at the cell surface with a nanoinjector that was also positioned by a computer controlled-micromanipulator.
This example describes the genotype-specific response of the three major eNOS variants to 1 μM and 5 μM concentrations of LA-419. The three major genetic polymorphisms studied were the Glu298Asp variant (E298D or 894G→T) in exon 7 of […], the −786T→C variant in the promoter region, and the intron 4 polymorphism (VNTR). All of these variants have possible effects on the cardiovascular system and endothelial dysfunction. For this study, human umbilical vein endothelial cells (HUVECs) from 50 donors between 18 and 32 years of age were used.
For the analysis several analysis techniques were employed. First, the effect of genotype on NO and ONOO^− release was explored within the different concentrations of LA-419 (control, 1 μM, 5 μM), calculated as the average peak release (nmols/L) of NO, ONOO^−, and NO/ONOO^−. The effect of genotype on the net increase in NO, ONOO^−, and NO/ONOO^− for LA-419 (1 μM and 5 μM) as compared to control was also measured. In addition, an analysis was done on the effect of genotype on the % change in NO, ONOO^−, and NO/ONOO^− production for LA-419 (1 μM and 5 μM), calculated as:
% Change=[(avg. LA-419−avg. control)/(avg. control)]*100
Finally, an evaluation was undertaken concerning the effect of genotype on the production of NO, ONOO^−, and NO/ONOO^− as the fold difference of control for LA-419 (1 μM and 5 μM), calculated as:
Fold Difference=(avg. LA-419)/(avg. control)
Within each calculation technique the results were compared for statistical significance using a non-parametric ANOVA Kruskal-Wallace test or a non-parametric Mann-Whitney U test. Statistical significance was set at a p-value <0.05 in a two-tailed distribution. […]

[1] = Caucasians, exon 7 major allele homozygote
[2] = Caucasians, exon 7 minor allele carriers
[3] = exon 7 major allele homozygote, all races
[4] = exon 7 minor allele carriers, all races
[5] = HUVECs G894T + T-786C Combination of all genotypes other than G/G + T/T
[6] = HUVECs G894T + T-786C variant G/G + T/C
[7] = HUVECs G894T + T-786C variant G/G + T/T (Reference)
[8] = HUVECs G894T + T-786C variant G/T + C/C
[9] = HUVECs G894T + T-786C variant G/T + T/C
[10] = HUVECs G894T + T-786C variant G/T + T/T
[11] = HUVECs G894T + T-786C variant T/T + C/C
[12] = HUVECs G894T + T-786C variant T/T + T/C

CC(=O)SC1COC2C(O[N+](=O)[O-])COC12 (stereo not drawn) [LA-419, S-(6-Nitro-oxi-hexahydro-furo[3,2-b]furan-3-1-il)thioacetate]
% Change ONOO− (mean ± sd) (HUVECs Intron 4 variant b/a): −19.70 (5.79) % | % Change NO (mean ± sd) (HUVECs Intron 4 variant b/b): 13.52 (6.80) % | % Change NO/ONOO− (mean ± sd) (HUVECs Intron 4 variant b/b): 42.24 (17.73) % | % Change ONOO− (mean ± sd) (HUVECs Intron 4 variant b/b): −19.19 (7.76) % | % Change NO (mean ± sd) (HUVECs Intron 4 variant c/c): 17.36 (0) % | % Change NO/ONOO− (mean ± sd) (HUVECs Intron 4 variant c/c): 52.87 (0) % | % Change ONOO− (mean ± sd) (HUVECs Intron 4 variant c/c): −22.99 (0) % | % Change NO (mean ± sd) (HUVECs T-786C variant C/C): 11.63 (5.99) % | % Change NO/ONOO− (mean ± sd) (HUVECs T-786C variant C/C): 42.33 (13.21) % | % Change ONOO− (mean ± sd) (HUVECs T-786C variant C/C): −21.03 (7.77) % | % Change NO (mean ± sd) (HUVECs T-786C variant T/C): 13.58 (6.82) % | % Change NO/ONOO− (mean ± sd) (HUVECs T-786C variant T/C): 38.74 (13.67) % | % Change ONOO− (mean ± sd) (HUVECs T-786C variant T/C): −17.73 (5.53) % | % Change NO (mean ± sd) (HUVECs T-786C variant T/T): 16.16 (5.97) % | % Change NO/ONOO− (mean ± sd) (HUVECs T-786C variant T/T): 49.09 (17.76) % | % Change ONOO− (mean ± sd) (HUVECs T-786C variant T/T): −20.98 (8.19) % | Fold difference NO production [1]: 1.19±0.07 | Fold difference NO/ONOO− ratio [1]: 1.47±0.12 | Fold difference NO production [2]: 1.11±0.05 | Fold difference NO/ONOO− ratio [2]: 1.35±0.10 | Fold difference NO production (Caucasians, promoter major allele variant): 1.17±0.08 | Fold difference NO production [3]: 1.16±0.06 | Fold difference NO/ONOO− ratio [3]: 1.48±0.18 | Fold difference NO production [4]: 1.13±0.06 | Fold difference NO/ONOO− ratio [4]: 1.39±0.13 | % Change Ratio, % Change NO/% Change ONOO− (mean ± sd) (HUVEC donor Race Asian): −0.50 (0) | % Change Ratio, % Change NO/% Change ONOO− (mean ± sd) (HUVEC donor Race Black): −0.79 (0.44) | % Change Ratio, % Change NO/% Change ONOO− (mean ± sd) (HUVEC donor Race Not Reported): −0.59 (0.08) | Net increase over control NO (mean ± sd) [5]: 46.78 (22.38) nmols/L | Net increase over control NO/ONOO− (mean ± sd) [5]: −0.87 (0.81) | Net increase over control ONOO− (mean ± sd) [5]: −68.74 (26.87) nmols/L | Peak release NO (mean ± sd) [5]: 398.12 (90.43) nmols/L | Peak release NO/ONOO− (mean ± sd) [5]: 1.43 (0.54) | Peak release ONOO− (mean ± sd) [5]: 304.95 (81.70) nmols/L | Net increase over control NO (mean ± sd) [6]: 51.58 (25.77) nmols/L | Net increase over control NO/ONOO− (mean ± sd) [6]: −0.78 (0.51) | Net increase over control ONOO− (mean ± sd) [6]: −66.54 (26.77) nmols/L | Peak release NO (mean ± sd) [6]: 397.25 (102.46) nmols/L | Peak release NO/ONOO− (mean ± sd) [6]: 1.56 (0.60) | Peak release ONOO− (mean ± sd) [6]: 277.33 (69.85) nmols/L | Net increase over control NO (mean ± sd) [7]: 56.59 (19.21) nmols/L | Net increase over control NO/ONOO− (mean ± sd) [7]: −0.88 (0.54) | Net increase over control ONOO− (mean ± sd) [7]: −77.59 (31.16) nmols/L | Peak release NO (mean ± sd) [7]: 399.67 (56.96) nmols/L | Peak release NO/ONOO− (mean ± sd) [7]: 1.48 (0.48) | Peak release ONOO− (mean ± sd) [7]: 293.93 (83.07) nmols/L | Net increase over control NO (mean ± sd) [8]: 46.00 (0) nmols/L | Net increase over control NO/ONOO− (mean ± sd) [8]: −1.01 (0) | Net increase over control ONOO− (mean ± sd) [8]: −45.67 (0) nmols/L | Peak release NO (mean ± sd) [8]: 434.33 (0) nmols/L | Peak release NO/ONOO− (mean ± sd) [8]: 1.72 (0) | Peak release ONOO− (mean ± sd) [8]: 252.67 (0) nmols/L | Net increase over control NO (mean ± sd) [9]: 43.72 (19.86) nmols/L | Net increase over control NO/ONOO− (mean ± sd) [9]: −0.83 (0.84) | Net increase over control ONOO− (mean ± sd) [9]: −65.59 (20.60) nmols/L | Peak release NO (mean ± sd) [9]: 387.90 (86.10) nmols/L | Peak release NO/ONOO− (mean ± sd) [9]: 1.34 (0.54) | Peak release ONOO− (mean ± sd) [9]: 318.33 (82.55) nmols/L | Net increase over control NO (mean ± sd) [10]: 52.83 (20.89) nmols/L | Net increase over control NO/ONOO− (mean ± sd) [10]: −1.29 (1.15) | Net increase over control ONOO− (mean ± sd) [10]: −71.50 (46.74) nmols/L | Peak release NO (mean ± sd) [10]: 433.58 (65.75) nmols/L | Peak release NO/ONOO− (mean ± sd) [10]: 1.71 (0.21) | Peak release ONOO− (mean ± sd) [10]: 252.92 (13.69) nmols/L | Net increase over control NO (mean ± sd) [11]: 35.33 (20.27) nmols/L | Net increase over control NO/ONOO− (mean ± sd) [11]: −0.36 (0.18) | Net increase over control ONOO− (mean ± sd) [11]: −94.89 (10.87) nmols/L | Peak release NO (mean ± sd) [11]: 348.78 (92.48) nmols/L | Peak release NO/ONOO− (mean ± sd) [11]: 1.19 (0.80) | Peak release ONOO− (mean ± sd) [11]: 345.56 (123.07) nmols/L | Net increase over control NO (mean ± sd) [12]: 53.00 (50.91) nmols/L | Net increase over control NO/ONOO− (mean ± sd) [12]: −1.41 (1.74) | Net increase over control ONOO− (mean ± sd) [12]: −64.83 (44.08) nmols/L | Peak release NO (mean ± sd) [12]: 453.00 (178.19) nmols/L | Peak release NO/ONOO− (mean ± sd) [12]: 1.23 (0.75) | Peak release ONOO− (mean ± sd) [12]: 397.67 (96.64) nmols/L | % Change Ratio, % Change NO/% Change ONOO− (mean ± sd) (HUVECs G894T variant G/G): −0.82 (0.40) | Net increase over control NO (mean ± sd) (HUVECs G894T variant G/G): 55.05 (21.03) nmols/L | Net increase over control NO/ONOO− (mean ± sd) (HUVECs G894T variant G/G): −0.85 (0.52) | Net increase over control ONOO− (mean ± sd) (HUVECs G894T variant G/G): −74.19 (29.80) nmols/L | Peak release NO (mean ± sd) (HUVECs G894T variant G/G): 398.92 (71.74) nmols/L | Peak release NO/ONOO− (mean ± sd) (HUVECs G894T variant G/G): 1.50 (0.51)
